Reference: ChEMBL document CHEMBL1158051, “Russujaponols A-F, illudoid sesquiterpenes from the fruiting body of Russula japonica” (2006)

Tests used:
HT-1080 [1] = assay: Inhibition of invasion of human HT1080 cells into Matrigel at 0.17 uM; format: functional
HT-1080 [2] = assay: Inhibition of invasion of human HT1080 cells into Matrigel at 3.73 uM; format: functional

Row | Compound | inhibition at 0.17 µM (HT-1080 [1]) [%] | inhibition at 3.73 µM (HT-1080 [2]) [%]
1 | COc1cccc2c1C(=O)c1c(O)c3c(c(O)c1C2=O)C[C@@](O)(C(=O)CO)C[C@@H]3O[C@H]1C[C@H](N)[C@H](O)[C@H](C)O1 [DOXORUBICIN] | 52 | 
2 | C[C@H]1C(=O)[C@@H]2C[C@](C)(CO)C[C@]2(O)[C@@]2(C)CC[C@@]12O [RUSSUJAPONOL A] |  | 63
